Measured values as given in paper PMC12298629, “New Derivatives of Caracasine Acid with Anti-Leukemic Activity and Limited Effectiveness in Spheroid Cultures” (Pharmaceuticals, 2025).

Tests used:
CCRF-CEM = test: Cytotoxic MTS assay, CCRF-CEM; assay type: cell-based; settings: CCRF-CEM, human leukemia cell line, 72 h, median of five assays
Source text: (§1) The cancer cell lines used in the cytotoxic assays were acquired from the American Tissue Culture Collection (ATCC) (Manassas, VA, USA) and maintained as described previously. The MRC-5 and BJ human fibroblasts were used as non-tumoral control cells. The (MRC-5 LD and BJ LD) are also human fibroblast cell lines resistant to doxorubicin. […] The Raji and Ramos cell lines correspond to B-cell leukemia. Other cells, such as U2OS, represent a child osteosarcoma, while HCT116 is a colorectal tumor cell line. (HCT116p53^−/−, Horizon Discovery Ltd., Cambridge, UK) is a similar cell line with its p53 gene knocked down, serving as a model of human cancer frequently associated with a poor prognosis. The cells were maintained in Nunc/corning 80 cm^2 plastic tissue culture flasks and cultured in a cell culture medium according to ATCC or Horizon recommendations (McCoy, DMEM/RPMI 1640 with 5 g/L glucose, 2 mM glutamine, 100 U/mL penicillin, […] streptomycin, 10% fetal calf serum, and NaHCO3). The compounds were freshly dissolved in DMSO. The final concentration of DMSO was 0.01% in the cell culture.
(§2) The in vitro cytotoxicity of compounds (1–7) was assessed using the standard 3-(4,5-dimethyl-thiazol-2yl)-5-(3-carboxymethoxyphenyl)-2-(sulfophenyl)-2H-tetrazolium (MTS). The assay was performed at the Institute of Molecular and Translational Medicine using a robotic platform (High-ResBiosolutions, Beverly, MA, USA). Cell suspensions were prepared and diluted according to the specific cell type and the expected target cell density (25,000–35,000 cells/mL, based on cell growth characteristics). An automatic pipettor (30 μL) was used to add cells into 384-well microtiter plates. All tested compounds were dissolved in 100% DMSO, and four-fold dilutions of the intended test concentrations were added in 0.15 μL aliquots at time zero to the microtiter plate wells by the echo acoustic non-contact liquid handler Echo550 (Labcyte, San Jose, CA, USA). The assays were accomplished in technical duplicates and at least three biological replicates. The cells were incubated with the tested compound for 72 h at 37 °C in a 5% CO2 atmosphere with 100% humidity. At the end of the incubation period, cells were assayed using the MTS test. Aliquots (5 μL) of the MTS stock solution were pipetted into each well and incubated for 1–4 h. After this incubation period, the optical density (OD) was measured at 490 nm using an Envision reader (PerkinElmer, Waltham, MA, USA). Tumor cell survival (TCS) was calculated using the following equation: TCS = (OD drug-exposed well/mean OD control wells) × 100%. The IC50 value, representing the concentration of the compound lethal to 50% of the tumor cells, was calculated from the corresponding dose-response curves using Dotmatics software (Updated version 2022, London, UK). After three days of incubation on the cancer cell lines and normal fibroblasts, the […] (IC50) were obtained. Five assays were performed for each cell line. The standard error of the assays was lower than 10%, as assessed by the triplicate assays.

K562 = test: Cytotoxic MTS assay, K562; assay type: cell-based; settings: K562, human leukemia cell line, 72 h, median of five assays
Source text: as §1, §2

A549 = test: Cytotoxic MTS assay, A549 2D; assay type: cell-based; settings: A549, human tumors 2D, 72 h, median of five assays
Source text: as §1, §2

HCT116KO53 = test: Cytotoxic MTS assay, HCT116 p53 knockout 2D; assay type: cell-based; settings: HCT-116, human tumors 2D, 72 h, median of five assays
Source text: as §1, §2

BJ LD = test: Cytotoxic MTS assay, BJ LD fibroblasts (doxorubicin-resistant); assay type: cell-based; settings: Fibroblast, doxorubicin-resistant human fibroblasts, 72 h, median of five assays
Source text: as §1, §2

caspase 9 = test: Caspase 9 activity in lysed HCT116 cells from 2D and spheroids; assay type: cell-based, human; settings: 12 h; for Caspase 9 activity, 2D culture: HCT116 parental, 25 µM; for Caspase 9 activity, spheroid culture: HCT116 parental spheroids, 25 µM (cisplatin 15 μM)
Description: (§3) The assay was designed to evaluate the impact of various compounds on caspase activity using a standardized quantity of cell protein lysates after 12 h of incubation. The parental line HCT116 served as the basis for these experiments. Three distinct caspases were examined employing the fluorescence assay kits from Calbiochem (San Diego, CA, USA), specifically a fluorometric caspase-8 assay kit and a fluorimetric caspase-3 assay kit. Additionally, the fluorometric kit from Abcam was utilized to assess caspase-9 activity. Due to the variations in protocols for each caspase, separate plates were prepared for each assay, encompassing both two-dimensional (2D) cell cultures and spheroids. The compound concentrations were established at 25 µM, and assays were conducted in quintuplicate following a 12-h incubation period. The cells were harvested from the plates using the standard trypsin-EDTA solution (Merck Sigma Aldrich, Saint Louis, MO, USA), washed, and counted before lysis, as described in each kit. Cell processing adhered to the guidelines provided by the respective companies, and protein concentration was calculated and standardized using the standard BCA assay. Fluorescent readings were captured using the Enspire apparatus (Perkin-Elmer, MA, USA). Positive controls utilized included staurosporine at a concentration of 5 μM and cisplatin at 15 μM. The kits provided their own standards; however, to normalize all the readings between cultures, types, and treatments, the results were expressed as a percentage relative to the positive control, staurosporine, in 2D culture. […] A total of three separate assays were conducted for each caspase.

RAJI = test: Cytotoxic MTS assay, Raji; assay type: cell-based; settings: Raji, human leukemia cell line, 72 h, median of five assays
Source text: as §1, §2

caspase 8 = test: Caspase 8 activity in lysed HCT116 cells from 2D and spheroids; assay type: cell-based, human; settings: 12 h; for Caspase 8 activity, 2D culture: HCT116 parental, 25 µM; for Caspase 8 activity, spheroid culture: HCT116 parental spheroids, 25 µM (cisplatin 15 μM)
Description: as §3

U2OS spheroids = test: Spheroid viability assay (CellTiter-Glo 3D), U2OS spheroids; assay type: cell-based; settings: U2OS, human tumors spheroids, 72 h, 100 pM to 50 μM
Description: Spheroid culture aims to analyze the drug’s effect on complex structures resembling solid tumors. The spheroids were prepared using the specific nonadherent plates for spheroid formation (Nunc Sphera, Thermo Fisher, Waltham, MA, USA) according to the simple protocol outlined by the manufacturer. The cell lines HCT116 parental, HCT116KOTp53, A549, and U2OS were cultured at a density of 2500 cells per well using medium containing 10% fetal calf serum and antibiotics: McCoy’s 5A medium for HCT116, F-12K (Kaighn’s Modified) for A549, and Dulbecco’s Modified Eagle Medium (DMEM). The cells were grown in culture for 48 h as recommended by the manufacturer and as described by Das et al. and Muñoz-Garcia et al..
The cell viability of the treated spheroids was assessed using the kit CellTiter-Glo 3D (Promega Corporation, Madison, WI, USA). The kit is designed to measure ATP as an indicator of viability, generating a luminescent readout that is more sensitive than colorimetric or fluorescence-based methods. The spheroids were cultivated with compounds at concentrations ranging from 100 pM to 50 μM in triplicate for 72 h, and the luminescence was measured using the Enspire apparatus (PerkinElmer). A standard curve was performed for each analysis as recommended by the manufacturer.

| IC50 (U2OS spheroids) | Compound | IC50 (CCRF-CEM) | IC50 (K562) | IC50 (A549) | IC50 (HCT116KO53) | IC50 (BJ LD) | Caspase 9 activity, 2D culture (caspase 9) | IC50 (RAJI) | Caspase 8 activity, 2D culture (caspase 8) | Caspase 9 activity, spheroid culture (caspase 9) | Caspase 8 activity, spheroid culture (caspase 8) |
| --- | --- | --- | --- | --- | --- | --- | --- | --- | --- | --- | --- |
| > 50 µM | C=C(C)C1CCC23CC(CCC2C1(C)CCC(=O)O)C(C)C3=O (single isomer, unassigned; ent-3) [Compound 5, Ent-3,4-Seco-15-Oxo-Kaur-4(19)-en-3-Oic Acid] | > 50 µM | > 50 µM | > 50 µM | > 50 µM | > 50 µM | did not induce caspase activity | > 50 µM | did not induce caspase activity | – | – |
| > 50 µM | C=C(C)C1CCC23CC(CCC2C1(C)CCC(=O)OC(C)=O)C(C)C3=O (single isomer, unassigned; ent-3) [Compound 6, Ent-3,4-Seco-15-Oxo-Kaur-4(19)-en-Acetic Anhydride] | > 50 µM | > 50 µM | > 50 µM | > 50 µM | > 50 µM | did not induce caspase activity | > 50 µM | did not induce caspase activity | – | – |
| > 50 µM | C=C1C(=O)C23CCC(C(=C)C)C(C)(CCC(=O)OC)C2CCC1C3 (stereo not drawn) [Compound 2, Caracasine] | 0.86 µM | 3.29 µM | 8.39 µM | 1.91 µM | 7.42 µM | – | 1.45 µM | – | absence of caspase activity | absence of caspase activity |
| > 50 µM | C=C1C(=O)C23CCC(C(=C)C)C(C)(CCC(=O)OC(C)=O)C2CCC1C3 (stereo not drawn) [Compound 7, Caracasine-Acetic Anhydride] | 0.45 µM | 4.6 µM | 3.72 µM | 1.91 µM | 7.63 µM | – | 2.21 µM | – | absence of caspase activity | absence of caspase activity |
